{"source": "patent US8173635B2", "about": "“Kinase inhibitors” (Vertex Pharmaceuticals Incorporated, priority 2007, dated 2012)", "type_in_all_cases": "biochemical", "key": {"PKC alpha kinase": {"target": "PKC alpha kinase (Homo sapiens, UniProt P17252)", "assay": "PKC alpha kinase inhibition, coupled-enzyme NADH absorbance assay (Ki)", "settings": "130 μM ATP, 4.5 nM PKC alpha, 30° C.; read-out: Ki PKC alpha", "protocol": "An assay buffer solution was prepared which consisted of 100 mM HEPES (pH 7.5), 10 mM MgCl2, 25 mM NaCl, 0.1 mM EDTA, 100 μM CaCl2 and 0.01% Brij. […] To 16 μL of this enzyme buffer, in a 384 well plate, was added 1 μL of VRT stock solution in DMSO. The mixture was allowed to equilibrate for 10 mins at 30° C. The enzyme reaction was initiated by the addition of 16 μL stock ATP solution prepared in assay buffer to a final assay concentration of 130 μM. Initial rate data was determined from the rate of change of absorbance at 340 nm (corresponding to stoichiometric consumption of NADH) using a Molecular Devices Spectramax plate reader (Sunnyvale, Calif.) over 15 mins at 30° C. […] Ki values were calculated from initial rate data by non-linear regression using the Prism software package (Prism 4.0a, Graphpad Software, San Diego, Calif.)."}, "PKC delta kinase": {"target": "PKC delta kinase (Homo sapiens, UniProt Q05655)", "sequence (Q05655 whole entry)": "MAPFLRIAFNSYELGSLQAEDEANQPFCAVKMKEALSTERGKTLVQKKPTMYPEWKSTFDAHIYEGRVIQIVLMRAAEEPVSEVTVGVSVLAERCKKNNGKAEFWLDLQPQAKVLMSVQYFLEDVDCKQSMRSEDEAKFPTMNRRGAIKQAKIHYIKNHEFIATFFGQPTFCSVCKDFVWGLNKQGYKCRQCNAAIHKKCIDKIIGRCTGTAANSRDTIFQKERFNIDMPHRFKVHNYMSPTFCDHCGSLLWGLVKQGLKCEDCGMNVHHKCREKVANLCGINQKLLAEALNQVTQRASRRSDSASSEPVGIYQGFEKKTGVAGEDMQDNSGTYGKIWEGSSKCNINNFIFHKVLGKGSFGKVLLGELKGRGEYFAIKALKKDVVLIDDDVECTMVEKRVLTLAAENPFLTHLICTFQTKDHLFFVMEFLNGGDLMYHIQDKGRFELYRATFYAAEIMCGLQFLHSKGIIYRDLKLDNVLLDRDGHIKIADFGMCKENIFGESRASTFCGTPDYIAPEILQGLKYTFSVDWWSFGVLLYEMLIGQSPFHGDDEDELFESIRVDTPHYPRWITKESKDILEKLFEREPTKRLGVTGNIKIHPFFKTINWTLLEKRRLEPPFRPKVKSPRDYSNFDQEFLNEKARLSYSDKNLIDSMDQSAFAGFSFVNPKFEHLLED", "assay": "PKC delta kinase inhibition, coupled-enzyme NADH absorbance assay (Ki)", "settings": "150 μM ATP, 46 nM PKC delta, 30° C.; read-out: Ki PKC delta", "protocol": "(§1) An assay buffer solution was prepared which consisted of 100 mM HEPES (pH 7.5), 10 mM MgCl2, 25 mM NaCl, 0.1 mM EDTA and 0.01% Brij. […] To 16 μL of this enzyme buffer, in a 384 well plate, was added 1 μL of VRT stock solution in DMSO. The mixture was allowed to equilibrate for 10 mins at 30° C. […] Ki values were calculated from initial rate data by non-linear regression using the Prism software package (Prism 4.0a, Graphpad Software, San Diego, Calif.)."}, "PKC theta kinase": {"target": "PKC theta kinase (Homo sapiens, UniProt Q04759)", "sequence (Q04759 whole entry)": "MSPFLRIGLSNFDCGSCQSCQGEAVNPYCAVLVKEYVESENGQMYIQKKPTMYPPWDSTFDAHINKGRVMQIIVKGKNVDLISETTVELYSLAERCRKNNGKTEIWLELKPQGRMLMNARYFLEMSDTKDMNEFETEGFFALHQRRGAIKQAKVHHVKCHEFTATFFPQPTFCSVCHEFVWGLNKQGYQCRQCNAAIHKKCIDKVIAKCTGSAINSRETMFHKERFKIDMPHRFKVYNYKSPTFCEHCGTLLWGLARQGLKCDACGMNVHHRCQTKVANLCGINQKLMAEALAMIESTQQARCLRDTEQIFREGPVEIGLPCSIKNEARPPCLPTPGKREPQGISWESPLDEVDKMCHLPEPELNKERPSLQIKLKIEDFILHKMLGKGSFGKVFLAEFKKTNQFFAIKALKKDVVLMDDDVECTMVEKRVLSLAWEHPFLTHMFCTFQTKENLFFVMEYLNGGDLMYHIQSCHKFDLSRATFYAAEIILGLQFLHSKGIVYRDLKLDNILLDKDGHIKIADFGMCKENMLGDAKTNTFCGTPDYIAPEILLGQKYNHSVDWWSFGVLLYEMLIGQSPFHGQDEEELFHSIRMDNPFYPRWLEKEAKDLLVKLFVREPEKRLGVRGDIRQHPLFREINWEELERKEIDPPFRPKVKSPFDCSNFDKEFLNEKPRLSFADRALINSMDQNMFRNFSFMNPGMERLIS", "assay": "PKC theta kinase inhibition, coupled-enzyme NADH absorbance assay (Ki)", "settings": "240 μM ATP, 18 nM PKC theta, 30° C.; read-out: Ki PKC theta", "protocol": "as §1, with “To 60” for “To 16”, “added 2” for “added 1”"}}}
{"smiles": "CC(C#N)(Cc1cccnc1)c1cccc(-c2ccnc3[nH]ncc23)c1", "note": "(stereo not drawn) [Compound 116]", "values": [{"measurement": "Ki", "setting": "PKC alpha kinase", "value": "> 1.2", "unit": "µM"}, {"measurement": "Ki", "setting": "PKC delta kinase", "value": "> 2", "unit": "µM"}, {"measurement": "Ki", "setting": "PKC theta kinase", "value": "> 0.7", "unit": "µM"}]}
{"smiles": "NCC1(c2cccc(-c3ccnc4[nH]ncc34)c2)CCCCC1", "note": "[Compound 177]", "values": [{"measurement": "Ki", "setting": "PKC alpha kinase", "value": "< 2.8", "unit": "µM"}, {"measurement": "Ki", "setting": "PKC delta kinase", "value": "< 0.5", "unit": "µM"}, {"measurement": "Ki", "setting": "PKC theta kinase", "value": "< 0.05", "unit": "µM"}]}
{"smiles": "N#CC1(c2cc(CCN)cc(-c3ccnc4[nH]ncc34)c2)CC1", "note": "[Compound 128]", "values": [{"measurement": "Ki", "setting": "PKC alpha kinase", "value": "> 1.2", "unit": "µM"}, {"measurement": "Ki", "setting": "PKC delta kinase", "value": "> 2", "unit": "µM"}, {"measurement": "Ki", "setting": "PKC theta kinase", "value": "< 0.5", "unit": "µM"}]}
{"smiles": "Cc1cc(/C(=C/C#N)CN)cc(-c2ccnc3[nH]ncc23)c1", "note": "[Compound 323]", "values": [{"measurement": "Ki", "setting": "PKC alpha kinase", "value": "< 0.5", "unit": "µM"}, {"measurement": "Ki", "setting": "PKC delta kinase", "value": "< 2.8", "unit": "µM"}, {"measurement": "Ki", "setting": "PKC theta kinase", "value": "< 0.5", "unit": "µM"}]}
{"smiles": "NCC1(c2cccc(-c3ccnc4[nH]ncc34)c2)CC=C(F)CC1", "note": "(stereo not drawn) [Compound 184]", "values": [{"measurement": "Ki", "setting": "PKC alpha kinase", "value": "< 0.5", "unit": "µM"}, {"measurement": "Ki", "setting": "PKC delta kinase", "value": "< 0.5", "unit": "µM"}, {"measurement": "Ki", "setting": "PKC theta kinase", "value": "< 0.05", "unit": "µM"}]}
{"smiles": "OCC1(c2cccc(-c3ccnc4[nH]ncc34)c2)CC1", "note": "[Compound 243]", "values": [{"measurement": "Ki", "setting": "PKC alpha kinase", "value": "> 1.2", "unit": "µM"}, {"measurement": "Ki", "setting": "PKC delta kinase", "value": "> 2", "unit": "µM"}, {"measurement": "Ki", "setting": "PKC theta kinase", "value": "< 0.5", "unit": "µM"}]}
{"smiles": "C#CCC(C)(C#N)c1cccc(-c2ccnc3[nH]ncc23)c1", "note": "(stereo not drawn) [Compound 91]", "values": [{"measurement": "Ki", "setting": "PKC alpha kinase", "value": "< 0.5", "unit": "µM"}, {"measurement": "Ki", "setting": "PKC delta kinase", "value": "< 2.8", "unit": "µM"}, {"measurement": "Ki", "setting": "PKC theta kinase", "value": "< 0.5", "unit": "µM"}]}
{"smiles": "COc1cccc(CC(C)(CN)c2cccc(-c3ccnc4[nH]ncc34)c2)c1", "note": "(stereo not drawn) [Compound 173]", "values": [{"measurement": "Ki", "setting": "PKC alpha kinase", "value": "< 0.5", "unit": "µM"}, {"measurement": "Ki", "setting": "PKC delta kinase", "value": "< 0.5", "unit": "µM"}, {"measurement": "Ki", "setting": "PKC theta kinase", "value": "< 0.05", "unit": "µM"}]}
{"smiles": "C=CCC(C)(C#N)c1cccc(-c2ccnc3[nH]ncc23)c1", "note": "(stereo not drawn) [Compound 90]", "values": [{"measurement": "Ki", "setting": "PKC alpha kinase", "value": "< 2.8", "unit": "µM"}, {"measurement": "Ki", "setting": "PKC delta kinase", "value": "< 2.8", "unit": "µM"}, {"measurement": "Ki", "setting": "PKC theta kinase", "value": "< 0.5", "unit": "µM"}]}
{"smiles": "CC(C)(O)CCc1cc(-c2ccnc3[nH]nc(C(F)(F)F)c23)cc(C2(C#N)CC2)c1", "note": "[Compound 316]", "values": [{"measurement": "Ki", "setting": "PKC alpha kinase", "value": "> 1.2", "unit": "µM"}, {"measurement": "Ki", "setting": "PKC delta kinase", "value": "> 1.2", "unit": "µM"}, {"measurement": "Ki", "setting": "PKC theta kinase", "value": "< 0.05", "unit": "µM"}]}
{"smiles": "CC(F)c1cc(-c2ccnc3[nH]ncc23)cc(C(C)(C)CN)c1", "note": "(stereo not drawn) [Compound 136]", "values": [{"measurement": "Ki", "setting": "PKC alpha kinase", "value": "< 2.8", "unit": "µM"}, {"measurement": "Ki", "setting": "PKC delta kinase", "value": "< 2.8", "unit": "µM"}, {"measurement": "Ki", "setting": "PKC theta kinase", "value": "< 0.05", "unit": "µM"}]}
{"smiles": "OCC1CCc2ccc(-c3ccnc4[nH]ncc34)cc21", "note": "(stereo not drawn) [Compound 203, (6-(1H-Pyrazolo[3,4-b]pyridin-4-yl)-2,3-dihydro-1H-inden-1-yl)methanol]", "values": [{"measurement": "Ki", "setting": "PKC alpha kinase", "value": "> 2.8", "unit": "µM"}, {"measurement": "Ki", "setting": "PKC delta kinase", "value": "> 2.8", "unit": "µM"}, {"measurement": "Ki", "setting": "PKC theta kinase", "value": "< 2.8", "unit": "µM"}]}
{"smiles": "COc1cc(-c2ccnc3[nH]ncc23)cc(C(C)(C)CN)c1", "note": "[Compound 142]", "values": [{"measurement": "Ki", "setting": "PKC alpha kinase", "value": "< 2.8", "unit": "µM"}, {"measurement": "Ki", "setting": "PKC delta kinase", "value": "< 2.8", "unit": "µM"}, {"measurement": "Ki", "setting": "PKC theta kinase", "value": "< 0.5", "unit": "µM"}]}
{"smiles": "CCC(C)(C#N)c1cc(-c2ccnc3[nH]ncc23)cc(C(F)(F)CC2CCCCC2)c1", "note": "(stereo not drawn) [Compound 119]", "values": [{"measurement": "Ki", "setting": "PKC alpha kinase", "value": "> 1.2", "unit": "µM"}, {"measurement": "Ki", "setting": "PKC delta kinase", "value": "> 2", "unit": "µM"}, {"measurement": "Ki", "setting": "PKC theta kinase", "value": "> 0.7", "unit": "µM"}]}
{"smiles": "CC(C#N)(Cc1ccccc1)c1cccc(-c2ccnc3[nH]ncc23)c1", "note": "(stereo not drawn) [Compound 100]", "values": [{"measurement": "Ki", "setting": "PKC alpha kinase", "value": "> 0.39", "unit": "µM"}, {"measurement": "Ki", "setting": "PKC delta kinase", "value": "> 2.8", "unit": "µM"}, {"measurement": "Ki", "setting": "PKC theta kinase", "value": "> 0.21", "unit": "µM"}]}
{"smiles": "OCc1cccc(-c2ccnc3[nH]ncc23)c1", "note": "[Compound 322]", "values": [{"measurement": "Ki", "setting": "PKC alpha kinase", "value": "> 1.2", "unit": "µM"}, {"measurement": "Ki", "setting": "PKC delta kinase", "value": "> 1.2", "unit": "µM"}, {"measurement": "Ki", "setting": "PKC theta kinase", "value": "> 0.7", "unit": "µM"}]}
{"smiles": "CC(F)c1cc(-c2ccnc3[nH]ncc23)cc(C(C)(C)C#N)c1", "note": "(stereo not drawn) [Compound 88]", "values": [{"measurement": "Ki", "setting": "PKC alpha kinase", "value": "< 2.8", "unit": "µM"}, {"measurement": "Ki", "setting": "PKC delta kinase", "value": "< 2.8", "unit": "µM"}, {"measurement": "Ki", "setting": "PKC theta kinase", "value": "< 0.05", "unit": "µM"}]}
{"smiles": "CCC(C)(C#N)c1cc(CC(F)(F)F)cc(-c2ccnc3[nH]ncc23)c1", "note": "(stereo not drawn) [Compound 113]", "values": [{"measurement": "Ki", "setting": "PKC alpha kinase", "value": "> 1.2", "unit": "µM"}, {"measurement": "Ki", "setting": "PKC delta kinase", "value": "> 2", "unit": "µM"}, {"measurement": "Ki", "setting": "PKC theta kinase", "value": "< 0.5", "unit": "µM"}]}
{"smiles": "CC(O)c1cccc(-c2ccnc3[nH]ncc23)c1", "note": "(stereo not drawn) [Compound 244]", "values": [{"measurement": "Ki", "setting": "PKC alpha kinase", "value": "> 1.2", "unit": "µM"}, {"measurement": "Ki", "setting": "PKC delta kinase", "value": "> 1.2", "unit": "µM"}, {"measurement": "Ki", "setting": "PKC theta kinase", "value": "> 0.7", "unit": "µM"}]}
{"smiles": "CCC(O)c1cccc(-c2ccnc3[nH]ncc23)c1", "note": "(stereo not drawn) [Compound 77]", "values": [{"measurement": "Ki", "setting": "PKC alpha kinase", "value": "> 2.8", "unit": "µM"}, {"measurement": "Ki", "setting": "PKC delta kinase", "value": "> 2.8", "unit": "µM"}, {"measurement": "Ki", "setting": "PKC theta kinase", "value": "< 2.8", "unit": "µM"}]}
{"smiles": "CC1(c2cccc(-c3ccnc4[nH]ncc34)c2)CCNC1", "note": "(stereo not drawn) [Compound 195]", "values": [{"measurement": "Ki", "setting": "PKC alpha kinase", "value": "< 2.8", "unit": "µM"}, {"measurement": "Ki", "setting": "PKC delta kinase", "value": "< 0.5", "unit": "µM"}, {"measurement": "Ki", "setting": "PKC theta kinase", "value": "< 0.05", "unit": "µM"}]}
{"smiles": "CCc1cc(-c2ccnc3[nH]ncc23)cc(C(C)(C)CN)c1", "note": "[Compound 44]", "values": [{"measurement": "Ki", "setting": "PKC alpha kinase", "value": "< 2.8", "unit": "µM"}, {"measurement": "Ki", "setting": "PKC delta kinase", "value": "< 2.8", "unit": "µM"}, {"measurement": "Ki", "setting": "PKC theta kinase", "value": "< 0.5", "unit": "µM"}]}
{"smiles": "FC(F)CC1(c2cccc(-c3ccnc4[nH]ncc34)c2)CNC1", "note": "[Compound 191, 4-(3-(3-(2,2-Difluoroethyl)azetidin-3-yl)phenyl)-1H-pyrazolo[3,4-b]pyridine]", "values": [{"measurement": "Ki", "setting": "PKC alpha kinase", "value": "< 0.5", "unit": "µM"}, {"measurement": "Ki", "setting": "PKC delta kinase", "value": "< 0.5", "unit": "µM"}, {"measurement": "Ki", "setting": "PKC theta kinase", "value": "< 0.05", "unit": "µM"}]}
{"smiles": "NCC1(c2cccc(-c3ccnc4[nH]ncc34)c2)CC(F)(F)C1", "note": "[Compound 235]", "values": [{"measurement": "Ki", "setting": "PKC alpha kinase", "value": "> 1.2", "unit": "µM"}, {"measurement": "Ki", "setting": "PKC delta kinase", "value": "< 0.5", "unit": "µM"}, {"measurement": "Ki", "setting": "PKC theta kinase", "value": "< 0.05", "unit": "µM"}]}
{"smiles": "CC(CN)(Cc1ccncc1)c1cccc(-c2ccnc3[nH]ncc23)c1", "note": "(stereo not drawn) [Compound 172]", "values": [{"measurement": "Ki", "setting": "PKC alpha kinase", "value": "< 2.8", "unit": "µM"}, {"measurement": "Ki", "setting": "PKC delta kinase", "value": "< 0.5", "unit": "µM"}, {"measurement": "Ki", "setting": "PKC theta kinase", "value": "< 0.05", "unit": "µM"}]}
